We go through three molecules from US20150238488A1, “DRUG COMPOSITION FOR TREATING TUMORS AND APPLICATION THEREOF” (priority 2012, published 2015).

The term viability denotes a per cent measure of how many cells are alive, often set against a control. As usually defined, the cell viability is a per cent measure of how many cells are alive, often set against a control.

The test system of data set [1] is K562/ADR leukemia transplanted tumor. Put plainly: Experiment 2-2: inhibition of leukemia transplanted tumor in nude mice (TTD, IM). The data set is classed as in vivo, BALB/c-nu nude mice. To be noted: K562/ADR xenograft, 50 mg/kg each drug, intragastric, 2 times a day, 14 days, Day 20; for Tumor inhibition rate (%): control = 0; for Tumor weight: x ± s. The protocol: Leukemia cell lines: K562/ADR (ADM-resistant human chronic myeloid leukemia cell line);
(§1) Animals: BALB/c-nu nude mice
(§2) Under sterile conditions, the above tumor cells were collected in the logarithmic growth phase, and were injected by subcutaneous injection in an amount of 1×10^7/0.2 mL/nude mice (cell viability>95%) into the right subaxillary of the nude mice, thus establishing leukemia transplated tumor models of in nude mice. The mice were administered from the sixth day after the inoculation. The treated group was intragastrically administered at the experimentally designed amount, the negative control group was intragastrically administered with sterile water, and the positive control group was intragastrically administered with IM. Each mouse was intragastrically administered in 0.4 ml each time and 2 times a day. The administrations were successive for 14 days. The day before administration was deemed as Day 0 and the body weight and tumor size of the mice were determined every 5 days to produce a dynamic plot on body weight and tumor growth. On Day 20, the mice were sacrificed and the tumors are taken out and weighed. The tumor inhibition rate (%) was calculated after the effect of the medicament based on a tumor inhibition rate of the control group being zero.

A short description of data set [2]: Experiment 2-2: body weight of tumor-bearing nude mice. In kind it is in vivo, BALB/c-nu nude mice. To be noted: 50 mg/kg each drug, intragastric, 2 times a day, 14 days, x ± s, n=3; for Body weight (g) Final: final (Day 20). The protocol:
as §2

For data set [3], the system named is KCL-22 M (human chronic granulocytic leukemia cell line mutant). As to the kind of experiment: MTT cell viability, 72 h, single drugs and combination. In kind it is cell-based. To be noted: read-out: CV(%) cell viability. The source says:
(§3) Leukemia cell lines: K562 (chronic myeloid leukemia cell line), K562/ADR (doxorubicin(ADM)-resistant human chronic granulocytic leukemia cell line), KCL-22 (chronic myeloid leukemia cell line), KCL-22 M (human chronic granulocytic leukemia cell line mutant), CML-BC (KCL-28 patient's cells), all of which are donated by Cancer Research Institute of Zhejiang University, China; KU812 (chronic myeloid leukemia cell line), purchased from Fuxiang Bio-tech Co. Ltd., Shanghai, China.
(§4) 1. […] Well-growing leukemia cells were obtained and inoculated into wells of a 96-well cell culture plate at 5000 cells/well. Respective compounds of various concentrations were added, mixed uniformly, and incubated (5% CO2) at 37° C. for 72 hours. Then the cell viability was determined by the MTT method.
(§5) 2. Determine the inhibitory effects of bisbenzylisoquinoline in combination with IM on leukemia cells in vitro. The pretreatment of the cells was the same as in a). The control group was not treated with the compound while administered. In the experimental group, compounds were added respectively to the concentration under which the IC50 (μg/mL) of the compounds in step 1 achieves. As to the combination group, the two compounds were added together into the same group of wells. After 72 hours of incubation, the MTT method was used for the determination of cell viability. The cell viability of the control group was set to 100% in this experiment, and the BBM/TTD, IM single drug and combined effects on cell viability (100%) were calculated.

Data set [4] deals with CML-BC (KCL-28 patient's cells). The description is as above. In kind it is cell-based. To be noted: read-out: CV(%) cell viability.
Description: as §3, §4, §5

In data set [5] the test system is KU812 (chronic myeloid leukemia cell line). Described as above. In kind it is cell-based. To be noted: Homo sapiens, KU812, 72 h; read-out: CV(%) cell viability.
Description: as §3, §4, §5

The subject of data set [6] is KCL-22 (chronic myeloid leukemia cell line). Described as above. In kind it is cell-based. To be noted: Homo sapiens, read-out: CV(%) cell viability.
Description: as §3, §4, §5

Data set [7] concerns K562 (chronic myeloid leukemia cell line). Described as above. In kind it is cell-based. To be noted: Homo sapiens, read-out: CV(%) cell viability.
Description: as §3, §4, §5

Data set [8] has as its system K562/ADR (doxorubicin(ADM)-resistant human chronic granulocytic leukemia cell line). The description is as above. In kind it is cell-based. To be noted: read-out: CV(%) cell viability.
Description: as §3, §4, §5

Data set [9] relates to K562/ADR leukemia transplanted tumor. As to the kind of experiment: Experiment 2-1: inhibition of leukemia transplanted tumor in nude mice (BBM, IM). In kind it is in vivo, BALB/c-nu nude mice. To be noted: K562/ADR xenograft, 100 mg/kg each drug, intragastric, 2 times a day, 14 days, Day 23; for Tumor inhibition rate (%): control = 0; for Tumor weight: x ± s. The procedure:
Leukemia cell lines: K562/ADR (ADM-resistant human chronic granulocytic leukemia cell line);
as §1
as §2, with “third” for “sixth”, “23,” for “20,”, “were” for “are”

The test system of data set [10] is human leukemia Jurkat cells. To be noted: cited from earlier work.
A short description of data set [11]: Experiment 2-1: body weight of tumor-bearing nude mice. The data set is classed as in vivo, BALB/c-nu nude mice. To be noted: 100 mg/kg each drug, intragastric, 2 times a day, 14 days, x ± s, n=3; for Body weight (g) Final: final (Day 23). The protocol: as §2, with “third” for “sixth”, “23,” for “20,”, “were” for “are”
The test system of data set [12] is peripheral blood leucocyte of a normal human being. To be noted: drug concentration 0.5 μg/mL to 10 μg/mL; cited from earlier work.

Read-outs that look alike come from different tables or passages of the source.

For the molecule `COc1ccc2cc1Oc1ccc(cc1)C[C@H]1c3cc(c(OC)cc3CCN1C)Oc1c(OC)c(OC)cc3c1[C@H](C2)N(C)CC3` [TTD, 6,6′,7,12-tetramethoxy-2,2′dimethylberbamine], in data set [1], the “Tumor inhibition rate (%)” value is 10.18% and the “Tumor weight” value was 0.83 ± 0.76 g. In [2], the “Body weight (g) Final” value is listed as 18.93 ± 1.53 g and the “Body weight (g) Initial” value stood at 21.30 ± 0.10 g.
As for `COc1cc2c3cc1Oc1c(OC)c(OC)cc4c1[C@@H](Cc1ccc(O)c(c1)Oc1ccc(cc1)C[C@@H]3N(C)CC2)N(C)CC4` [BBM, 6,6′,7-trimethoxy-2,2′-dimethylberbaman-12-ol], the viability at 1.7 µg/mL in data set [3] (KCL-22, 72 h) was determined as 52.4%. Besides, the viability at 1.5 µg/mL was determined as 54.4% in data set [4], 51.6% in data set [5] and 46.3% in [8] (K562/Adr). Moreover, in [6] (KCL-22, BBM 6.5 μg/mL (IC50 dose), 72 h, MTT), the viability at 6.5 µg/mL was 50%. Further, the viability at 1.6 µg/mL in data set [7] (K562, BBM 1.6 μg/mL (IC50 dose), 72 h, MTT) turned out to be 44.5%. The “Tumor inhibition rate (%)” value in data set [9] was determined as 63.66%. For the same molecule, the “Tumor weight” value in data set [9] is given as 0.25 ± 0.34 g. Further, the cell viability is 93.69% in data set [10] (drug concentration 0.5 μg/mL) and 14.85% in [10] (drug concentration 10 μg/mL). Also, the “Body weight (g) Final” value in data set [11] stood at 18.57 ± 2.28 g. Also, the “Body weight (g) Initial” value in [11] is given as 21.23 ± 0.23 g. Further, the cytotoxic effect result in data set [12] was “no evident cytotoxic effect”.
`Cc1ccc(NC(=O)c2ccc(CN3CCN(C)CC3)cc2)cc1Nc1nccc(-c2cccnc2)n1` [IM]: the viability at 3.27 µg/mL in data set [3] (KCL-22 M, IM 3.27 μg/mL (IC50 dose), 72 h, MTT) is 48%. Further, in data set [4], the viability at 0.01 µg/mL worked out at 57.1% and the viability at 0.02 µg/mL turned out to be 57.1%. In data set [5], the viability at 0.01 µg/mL was 56.7% and the viability at 0.03 µg/mL worked out at 53.3%. Further, the viability at 0.05 µg/mL in data set [6] (KCL-22, 72 h) is 51.1%. For the same molecule, the viability at 0.08 µg/mL in [6] (KCL-22, IM 0.08 μg/mL (IC50 dose), 72 h, MTT) was 48.5%. Also, in data set [7] (K562, 72 h), the viability at 0.02 µg/mL is 57.9% and the viability at 0.03 µg/mL worked out at 44.2%. Besides, the viability at 0.16 µg/mL in data set [8] (K562/ADR, IM 0.16 μg/mL (IC50 dose), MTT) amounted to 42.5%. Moreover, the viability at 0.2 µg/mL in [8] (K562/Adr) was 42.3%. Besides, in data set [9], the “Tumor inhibition rate (%)” value amounted to 71.98% and the “Tumor weight” value was 0.19 ± 0.27 g. Moreover, in [1], the “Tumor inhibition rate (%)” value was determined as 12.26% and the “Tumor weight” value turned out to be 0.81 ± 0.52 g. In addition, in data set [2], the “Body weight (g) Final” value is listed as 18.40 ± 0.52 g and the “Body weight (g) Initial” value amounted to 21.47 ± 0.21 g. In addition, in data set [11], the “Body weight (g) Final” value is listed as 17.37 ± 2.75 g and the “Body weight (g) Initial” value worked out at 21.00 ± 0.12 g.
